# Data taken from publication PMC6481345, “A novel anti-melanoma SRC-family kinase inhibitor” (Oncotarget, 2019).
# Legend:
# phospho-ERBB2 Y1196 = experiment: Western blot, phospho-ERBB2; type: cell-based, human; settings: YUSOC, YUROB, YUSIV, YUTOGS
# Description: (§1) We used standard techniques to identify changes in intracellular signaling in response to various treatments. Briefly, melanoma cells were incubated with test compounds, using DMSO as a control, collected by scraping on ice, and lysed in RIPA buffer supplemented with protease and phosphatase inhibitors (MA #78428, and #78425, respectively, Thermo Fisher Scientific, Waltham, MA). Protein concentrations were measured with the BioRad kit (Bio-Rad Laboratories, Hercules, CA), SDS sample buffer was added, extracts were heated at 95°C, sonicated and centrifuged. Cell extracts (20 µg/lane) were fractionated in 3%–8% or 4–12 % tris-acetate gel (NP0006, NuPAGE Life Technologies). […]
# YUSIK melanoma tumors = experiment: In vivo tumor growth, YUSIK melanoma xenograft; settings: YUSIK tumor bearing nude mice, 20 mg/kg daily intraperitoneal from day 12, vs solvent control; 6 mice; p = 0.0006
# Description: All procedures involving animals were approved by the Institutional Animal Care and Use Committee of Yale University. YUSIK melanoma cells were grown to 80% confluency in 150 cm^2 flasks, detached by trypsinization, washed with PBS, and cell pellets were resuspended in 1:1 mixture of PBS and matrigel (BD Bioscience Cat #354234) to sustain cell viability. The cells (4 × 10^6/100 µl) were injected subcutaneously in the back flank of six weeks old female athymic Nude-Foxn1nu (nu/nu) mice (Charles River Laboratories, Wilmington, MA), and tumors were measuring daily with a caliper (length, width, and depth). When tumors reached palpable size (between 25–40 mm^3), the animals were randomized by tumor size and body weigh into two groups and were daily injected intraperitoneally with SAB298 (batch #AU0588-91, Sabila Biosciences LLC, 5 Overlook Road, New City, New York, 10956) or vehicle as controls (N = 6/each). […] The vehicle contained the same reagents but without SAB298.
# phospho-PP2A Y307 = experiment: Western blot, inactivated PP2A; type: cell-based, human; settings: YUSIK and YUSIV melanoma cells
# Description: as §1
# melanoma cells = experiment: Apoptosis (annexin V staining and caspase activity); type: cell-based, human; settings: 0.5 µM and 1 µM, 24 hrs
# Description: The rate of apoptosis was measured using the Dead Cell Apoptosis Kit with Alexa Fluor® 488 annexin V and propidium iodide (Invitrogen, V13241). Phosphatidylserine was visualized by flow cytometry following the manufacturer’s instructions. The assay was done in response to SAB298 (0.5 µM and 1 µM, 24 hrs), compared to DMSO (negative control) or camptothecin (10 µM), as a positive control. In addition, we used the 96-well colorimetric Caspase 3 Assay kit (Millipore Sigma) to measure caspase activity in response to increasing concentrations of SAB298, and western blotting for apoptotic markers, such as cleaved PARP. […]
# www.oncotarget.com Oncotarget, Supplementary Materials
# A novel anti-melanoma src-family kinase inhibitor
# Supplementary Figure 1: Apoptosis in response to SAB298. […]
# melanoma cells treated for 24 hrs with SAB298 (0.5 and 1 µM). (C) A bar plot showing the differential levels of annexin positive cells in response to SAB298. (D) Caspase activity in response to SAB298 of four different cell lines (YUSIV, YUSIK, YUGASP and YUSEEP).
# (1 picture or pasted object on this page, not shown here)
# YES1 = YES1 (Homo sapiens, UniProt P07947); experiment: KiNativ in situ kinase profiling in melanoma cell lysates; type: binding; parameters: the endogenous kinome response to SAB298 (0.05 µM, 0.5 µM and 5 µM) in lysates from two melanoma cell lines; host or cells: YUSIV melanoma cell lysate (not present in YUSIK); settings: YES1 in YUSIV lysate; 3-point dose response
# Chain of YES1 (P07947 whole entry): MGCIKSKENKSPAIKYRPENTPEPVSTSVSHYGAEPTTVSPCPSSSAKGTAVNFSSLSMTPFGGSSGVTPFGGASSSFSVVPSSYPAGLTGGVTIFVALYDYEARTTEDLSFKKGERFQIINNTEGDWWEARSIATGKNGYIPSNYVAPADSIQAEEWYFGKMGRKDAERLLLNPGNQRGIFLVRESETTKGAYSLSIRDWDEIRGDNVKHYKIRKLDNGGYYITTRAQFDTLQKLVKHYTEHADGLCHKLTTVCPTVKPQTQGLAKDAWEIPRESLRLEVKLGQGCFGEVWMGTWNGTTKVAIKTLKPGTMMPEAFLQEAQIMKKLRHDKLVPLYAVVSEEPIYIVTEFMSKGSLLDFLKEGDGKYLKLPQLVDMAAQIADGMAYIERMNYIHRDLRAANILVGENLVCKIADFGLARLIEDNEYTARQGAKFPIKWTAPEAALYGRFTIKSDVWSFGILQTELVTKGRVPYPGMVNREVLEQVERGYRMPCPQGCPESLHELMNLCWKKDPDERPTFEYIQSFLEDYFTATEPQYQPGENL
# Description: (§2) The effect of SAB298 on a panel of 36 recombinant kinases, was screed with the radioisotope filter binding assay employing 10 concentrations of the compound with 10 µM ATP (Reaction Biology Corporation, Malvern, PA). In addition, we tested the endogenous kinome response to SAB298 (0.05 µM, 0.5 µM and 5 µM) in lysates from two melanoma cell lines (YUSIV and YUSIK) employing the KiNativ® platform (ActivX Biosciences Inc., La Jolla, CA). KiNativ® is a robust, high performance mass spectrometry (LC-MS^2) assay that uses biotinylated probes to measure relevant changes in the affinity to the ATP-binding sites of 205 native kinases as a function of cellular context. We also validated SAB298 effect on the activity of SRC-family kinases by probing for phosphorylated Y416, the marker of activated SFKs, with anti-IEDNEpYTAR antibodies (also known as Y419, #2101, Cell Signaling Technology, Beverly, MA). In some cases the cells were incubated overnight with 20 µM proteasome inhibitor MG-132 (CAS 133407-82-6, Millipore Sigma, Burlington, MA) to rescue degradation.
# pY467/199 PIK3R1/3 = experiment: Western blot, phospho-Y467/199 PIK3R1/3; type: cell-based, human; settings: melanoma cell lines; 0.5 µM, 5 hrs
# Description: as §1
# [1] = molecular target: native kinases in YUSIV and YUSIK lysates; experiment: KiNativ in situ kinase profiling (summary over kinases); type: binding, human; settings: mTOR, EGFR, LCK and MEK1; read-out: IC50, range over kinases
# Description: as §2
structure (smiles),measurement,setting,value
"Nc1ncnc2c1c(-c1ccc(Oc3ccccc3)cc1)nn2C[C@@H]1SSC[C@@H]1O [SAB298, (3S, 4S)-3-((4-amino-3-(4-phenoxyphenyl)-1H-pyrazolo[3,4-d]pyrimidin-1-yl)methyl)-1,2-dithiolan-4-ol]",phospho-ERBB2 Y1196 level,phospho-ERBB2 Y1196,suppressed phospho-ERBB2 Y1196
same,Tumor growth,YUSIK melanoma tumors,significantly suppressed the growth
same,inactivated PP2A (phospho-PP2A Y307) level,phospho-PP2A Y307,increase in the levels of inactivated PP2A
same,Apoptosis (annexin staining and caspase activity),melanoma cells,induced apoptosis
same,IC50,YES1,< 10 nM
same,phospho-Y467/199 PIK3R1/3 level,pY467/199 PIK3R1/3,suppressed PI3K
same,IC50,[1],1300 to 2900 nM
